Assay results published in patent US20250281440A1, “METHOD TO IMPROVE GROWTH PERFORMANCE, LIVABILITY, CARCASS CHARACTERISTICS AND/OR MILK QUALITY IN SWINE” (NutriQuest, LLC, priority 2024, published 2025).
Several values for one entry are separate records, joined by “and”; a condition that tells them apart may be missing. Equal entries are not always repeated. Marks after values point to notes of the source that are not given here.

Legend:
[1] = test system: commercial finishing pigs (PIC 800×PIC 1050); assay: Carcass characteristics of finishing pigs fed increasing dietary 78% Na-DMG (Example 1); format: in vivo; conditions: for 10th-rib backfat depth reduction (numerical) / Loin depth improvement compared to Control: carcasses; for Loin depth improvement compared to Control: P<0.05
Protocol: A study was conducted to evaluate the impact of increasing dietary levels of 78% Na-DMG on carcass characteristics of commercial finishing pigs (PIC 800×PIC 1050). A total of 723 mixed-sex finishing pigs (initial BW=179.5±1.0 lb) were housed in pens with 25 to 27 pigs per pen. […] This experiment extended over a 6-week period until pigs were harvested at 292.5±1.7 lb of BW.

sows (PIC 1050) = assay: Milk fat content in sows fed Na-DMG (78%) (Example 2); format: in vivo, pigs
[2] = test system: commercial finishing pigs; assay: Growth performance, livability and carcass characteristics of finishing pigs fed DMG (Example 3); format: in vivo; conditions: for ADFI / Carcass yield / Closeout ADG / Closeout G/F / End BW / Fat depth / Fat-free carcass lean / Hot carcass weight / Loin depth / Non-selected pigs (lights and culls) / Morbidity / Mortality / Pigs sold to primary market: 8-wk
Text: To evaluate the impact of increasing dietary levels of 78% sodium dimethylglycine (DMG) on growth performance, livability, and carcass characteristics of commercial finishing pigs, a total of total of 1,115 mixed-sex finishing pigs (initial BW=70.1±1.8 kg) were housed in pens with 25 to 27 pigs per pen. Pens within block were assigned randomly to one of four dietary treatments containing 0 (Control), 0.25 (DMG_0.25), 0.5 (DMG_0.5) or 1.0 (DMG_1.0) g DMG/kg of feed with 11 replicates per treatment. This experiment extended over an 8-wk period until pigs were harvested at 125.4±0.8 kg of BW.
Data were analyzed using the MIXED procedure of SAS, and preplanned orthogonal contrasts were conducted to evaluate pairwise comparisons as well as linear and quadratic effects related to the increased levels of DMG. While no linear effect was observed, there was a tendency for a quadratic response in closeout feed efficiency (G/F, P=0.08) and the percentage of pigs with morbidity (P=0.06), with the most favorable responses found in pigs fed DMG_0.25 (Table 2).

growing pigs = assay: Incidence of lameness in pigs fed DMG (Example 4); format: in vivo
Protocol: A total of 1,180 growing pigs (initial BW=51.4±1.0 lb) were housed in pens with 25 to 27 pigs per pen. […] This experiment extended over a 17-wk period until pigs were harvested at 292.5±1.7 lb of BW. Signs of lameness were recorded, and percentage of pigs removed to hospital pens due to lameness were calculated (Table 3).

finishing pigs = assay: Meta-analysis (3-trial combined) of morbidity, mortality and F/G in late finishing pigs fed Na-DMG (Examples 5 and 7); format: in vivo
Text: Three studies were compiled to evaluate the effects of dietary supplementation of Na-DMG (78%) on morbidity and mortality in finishing pigs. In each study, pigs were fed either a Control diet or diet containing Na-DMG at 0.50 lb/ton from approximately 180 lb of body weight until harvested at 290 lb for a period of 6 to 8 weeks. […] Reasons of morbidity and mortality included, but not limited to, lameness, ileitis, bacterial infection, injury, prolapse, intestinal torsion, stomach ulcers, abdominal rupture, bloat, failure to eat.
(§1) Animals produce greenhouse gases due to biological processes for growth and maintenance functions. Pig production would therefore be a source of greenhouse gases and wean to finish production would result in production of carbon dioxide, methane, and nitrous oxide emissions. Using the Iowa Pork Industry's sustainability calculator, we calculated the impact feedings of DMG in late finishing would have on greenhouse gas emissions. […] We then took similar estimates for early performance and estimated F/G and mortality for an entire grow-out period to use in the calculator. The calculator provides equivalent lb. of carbon dioxide per lb. or market weight for comparison purposes. By adding DMG in late finishing, carbon dioxide emissions were reduced by 3% during the entire wean to finish grow-out.

lactating sows = assay: Serum non-esterified fatty acids (NEFA) in lactating sows (Example 6); format: in vivo, pigs; conditions: 445 mg Na-DMG per day, measured at weaning
Text: Serum non-esterified fatty acids (NEFA) are molecules released from adipose tissue during periods of energy demand or catabolic status. In research of energy metabolism, NEFA level has been used as biomarker to assess balance between fat mobilization and energy expenditure.

[3] = Calculated wean-to-finish performance and greenhouse gas emissions, Pork Sustainability Calculator (Example 7); parameters: species or system pigs; conditions: DMG @ 0.5 lb/ton in late finishing
Text: as §1

rats = conditions: when folate was sufficient; cited from earlier work
sows = sows fed DMG from day 105 of gestation until day 3 of lactation; cited from earlier work
broilers = conditions: cited from earlier work
[4] = Na-DMG 0.50 lb/ton, approx. 180 to 290 lb BW, 6 to 8 weeks

CN(C)CC(=O)O [DMG, N,N-dimethylglycine]
Fat-free carcass lean ([1]; DMG at 0.25 lb/ton, P<0.10): tended to be improved | 10th-rib backfat depth reduction (numerical) ([1]; DMG at 0.25 lb/ton): 3.4% | Loin depth improvement compared to Control ([1]; DMG at 0.25 lb/ton): 2.5% | 10th-rib backfat depth reduction (numerical) ([1]; DMG at 0.50 lb/ton): 2.3% | Loin depth improvement compared to Control ([1]; DMG at 0.75 lb/ton): 3.5% | Loin depth, response to increasing dietary DMG level ([1]; increasing dietary DMG level, P=0.04): linearly improved | Total milk fat, % (Day 10-14 in lactation) (sows (PIC 1050); 0.5 lb/ton from day 100 of gestation through lactation): 6.114% | Total milk fat, % (Day 10-14 in lactation) (sows (PIC 1050); 0.5 lb/ton from farrowing through lactation): 5.973% | Carcass characteristics (hot carcass weight, carcass yield, fat depth, loin depth, fat-free carcass lean) ([2]; 0.25, 0.5 and 1.0 g DMG/kg feed vs Control): not different among treatments | ADFI ([2]; 0.25 g DMG/kg feed): 3.00^b kg/day | Carcass yield ([2]; 0.25 g DMG/kg feed): 72.6% | Closeout ADG ([2]; 0.25 g DMG/kg feed): 1.01 kg/day and 1.01^y kg/day | Closeout G/F ([2]; 0.25 g DMG/kg feed): 0.337 | End BW ([2]; 0.25 g DMG/kg feed): 126.4 kg | Fat depth ([2]; 0.25 g DMG/kg feed): 16.6 mm | Fat-free carcass lean ([2]; 0.25 g DMG/kg feed): 56.2% | Hot carcass weight ([2]; 0.25 g DMG/kg feed): 93.5 kg | Loin depth ([2]; 0.25 g DMG/kg feed): 62.5 mm | Non-selected pigs (lights and culls) ([2]; 0.25 g DMG/kg feed): 8.7% | Increase in closeout ADG compared with Control ([2]; 0.25 g DMG/kg feed, P=0.02): 6% | Increase in closeout G/F compared with Control ([2]; 0.25 g DMG/kg feed, P=0.05): 4% | ADFI ([2]; 0.5 g DMG/kg feed): 2.93^a kg/day | Carcass yield ([2]; 0.5 g DMG/kg feed): 73.6% | Closeout ADG ([2]; 0.5 g DMG/kg feed): 0.95^x kg/day | Closeout G/F ([2]; 0.5 g DMG/kg feed): 0.326 | End BW ([2]; 0.5 g DMG/kg feed): 124.9 kg | Fat depth ([2]; 0.5 g DMG/kg feed): 17.0 mm | Fat-free carcass lean ([2]; 0.5 g DMG/kg feed): 56.0% | Hot carcass weight ([2]; 0.5 g DMG/kg feed): 94.1 kg | Loin depth ([2]; 0.5 g DMG/kg feed): 62.2 mm | Morbidity ([2]; 0.5 g DMG/kg feed): 0.7^cd % | Mortality ([2]; 0.5 g DMG/kg feed): 2.5^d % | Non-selected pigs (lights and culls) ([2]; 0.5 g DMG/kg feed): 9.4% | Pigs sold to primary market ([2]; 0.5 g DMG/kg feed): 87.4% | ADFI ([2]; 1.0 g DMG/kg feed): 2.99^ab kg/day | Carcass yield ([2]; 1.0 g DMG/kg feed): 73.8% | Closeout ADG ([2]; 1.0 g DMG/kg feed): 0.97^xy kg/day | Closeout G/F ([2]; 1.0 g DMG/kg feed): 0.323 | End BW ([2]; 1.0 g DMG/kg feed): 125.8 kg | Fat depth ([2]; 1.0 g DMG/kg feed): 16.8 mm | Fat-free carcass lean ([2]; 1.0 g DMG/kg feed): 56.0% | Hot carcass weight ([2]; 1.0 g DMG/kg feed): 94.2 kg | Loin depth ([2]; 1.0 g DMG/kg feed): 61.7 mm | Morbidity ([2]; 1.0 g DMG/kg feed): 2.2^d % | Mortality ([2]; 1.0 g DMG/kg feed): 1.4^cd % | Non-selected pigs (lights and culls) ([2]; 1.0 g DMG/kg feed): 6.5% | Pigs sold to primary market ([2]; 1.0 g DMG/kg feed): 90.0% | Growth performance and livability compared with Control ([2]; DMG at 0.5 and 1.0 g/kg, P>0.10): not different compared with Control | Lameness (pigs removed to hospital pens due to lameness) (growing pigs; DMG_0.25 (0.25 lb DMG/ton feed), 17-wk): 0.3%^d | Lameness (pigs removed to hospital pens due to lameness) (growing pigs; DMG_0.50 (0.50 lb DMG/ton feed), 17-wk): 0.7%^cd | Lameness (pigs removed to hospital pens due to lameness) (growing pigs; DMG_0.75, 17-wk): 1.4%^cd | Incidence of lameness compared to Control (growing pigs; regardless of dietary concentration, statistically (P<0.10) or numerically (P>0.10)): reduced incidence of lameness | Closeout F/G, late finishing testing period (finishing pigs; DMG @ 0.5 lb/ton): 3.30 | Closeout F/G, late finishing testing period, % Change vs Control (finishing pigs; DMG @ 0.5 lb/ton): −4.6% | Mortality, late finishing testing period, % Change vs Control (finishing pigs; DMG @ 0.5 lb/ton): −39.0% | Reduction of morbidity compared to Control (finishing pigs; Na-DMG 0.50 lb/ton): 72% | Reduction of total removal compared to Control (finishing pigs; Na-DMG 0.50 lb/ton): 53% | Morbidity (finishing pigs; [4]): 0.36% | Mortality (finishing pigs; [4]): 1.08% | Non-selected (culls and lights) (finishing pigs; [4]): 5.48% | Pigs sold to primary market (finishing pigs; [4]): 93.1% | Total pigs finished (finishing pigs; [4]): 98.6% | Total removal (finishing pigs; [4]): 1.44% | Serum NEFA reduction compared to Control (lactating sows): 32% | Calculated wean-to-finish closeout F/G, % Change vs Control [3]: −2.6% | Calculated wean-to-finish mortality, % Change vs Control [3]: −18.3% | Calculated wean-to-finish mortality ([3]; early mortality rate of 2% combined): 3.08% | Calculated wean-to-finish closeout F/G ([3]; feed budget of 353 lb per pig combined): 2.58 | Plasma homocysteine level (rats): significantly reduced | Nutrient digestibility (sows): improved nutrient digestibility | Nutrient digestibility (broilers): improved nutrient digestibility
